# Records with an inconclusive call do not appear. The source made the active and inactive calls.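 How the source made its calls: active means signal-lowering compounds whose fitted half-maximal concentration is at most ten times their highest tested dose; inconclusive means flat fit between -30 and -70%, or poor fit; inactive means flat within 30%, signal rising, or potency beyond limit.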
# Target: POS-1 (Caenorhabditis elegans) binding to mex-3 RNA
# Experiment: C. elegans POS-1 RNA interaction disruptors – biochemical, fluorescence polarization, cherry-picked samples, set 2, counter-screen for MEX-5 RNA-binding inhibitor project, dose response (AID 493130);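 further: POS-1 as maltose binding protein fusion made in E. coli with FITC RNA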
# Details: POS-1/mex-3 RNA fluorescence polarization, 1 h
row,Structure (SMILES),AC50
1,Cc1cc[n+](-c2[nH]c(=O)sc2/C=N/NC([S-])=Nc2ccccc2)cc1,2.39 µM
2,Cc1ccc(-c2cc(C(=O)Nc3ccc(S(=O)(=O)Nc4ncccn4)cc3)[nH]n2)c(O)c1C,5.29 µM
3,CN(C)[C@@H]1C(=O)C(C(N)=O)=C(O)[C@@]2(O)C(=O)C3=C(O)c4c(O)cccc4[C@@](C)(O)[C@H]3[C@H](O)[C@@H]12,4.07 µM
4,CCOc1ccc(N=Nc2c(=O)[nH]n3c(=O)cc(C)[nH]c23)cc1,> 10 µM (inactive)
5,COc1ccc(C2C=C(c3ccc(Br)cc3)Nc3nc(N4C(=O)CCC4=O)nn32)cc1 (stereo not drawn),8.26 µM
6,Nc1ccc(N(CCO)CCO)cc1,6.49 µM
7,O=C(Nc1nc2c(s1)CN(Cc1ccccc1)CC2)c1cccc(S(=O)(=O)N2CCc3ccccc32)c1,7.79 µM
8,CCc1ccc[n+](-c2[nH]c(=O)sc2/C=N/NC([S-])=Nc2ccccc2)c1,2.54 µM
9,CC1C(=O)NN=C1C(=O)N/N=C\c1ccc(O)cc1O (stereo not drawn),9.42 µM
10,Cc1cc(=O)oc(C)c1C(=O)Nc1ccc2ncccc2c1,8.33 µM
11,Cc1ccc(C(=O)NNC(=O)c2ccc3ccccc3c2O)cc1,7.78 µM
12,CCOC(=O)C1=C(CSc2nc3c(cc2C#N)CN(C)CC3)OC(N)=C(C#N)C1c1ccncc1 (stereo not drawn),7.33 µM
13,O=C(NNC(=O)c1ccccc1O)c1ccc(S(=O)(=O)Nc2ccccc2)cc1,4.17 µM

# Same assay, conditions: POS-1/mex-3 RNA fluorescence polarization, 1 h; at 10 µM (top of the series)
row,Structure (SMILES),"activity change, negative = inhibition"
1,CSCCCN1CCC(n2nccc2NC(=O)CCCc2ccccc2)CC1,inactive
2,Nc1c(C(=O)Nc2ccccc2F)sc2nc(-c3cccnc3)ccc12,inactive
3,Cc1csc(NC(=O)c2ccc(-c3ccc(Cl)cc3Cl)o2)n1,inactive
4,COc1ccc2c(c1OC)CN1CCc3cc4c(cc3[C@@H]1[C@@H]2O)OCO4,inactive
5,C/C=C(\C)CN1CCC(n2nccc2NC(=O)CCCc2ccccc2)CC1,inactive
6,O=C(O)Cc1c[nH]c2cccc(O)c12,inactive
7,CN(C)c1ccc(/C=C/c2nc3ccccc3c(=O)[nH]2)cc1,inactive
8,Cc1ccc(O)c(-c2cc(C(=O)Nc3ccc(S(=O)(=O)Nc4nc(C)cc(C)n4)cc3)[nH]n2)c1,inactive
9,COc1ccc(N=C2S/C(=C\c3ccc(N4CCOCC4)o3)C(=O)N2CCc2c[nH]c3ccccc23)cc1,inactive
10,O=C(CN1C(=O)/C(=C/c2cccc(Br)c2)SC1=S)NC1=NCCS1,inactive
11,COc1ccc(NC(=S)NNC(=O)C(C)n2nc(C)c([N+](=O)[O-])c2C)cc1 (stereo not drawn),inactive
12,N#Cc1cc2c(=O)n3ccccc3nc2n(CCCN2CCOCC2)c1=O,inactive
13,Cc1cccc(/C=C(\C#N)C(=O)Nc2ccccn2)c1,inactive
14,NC(=O)c1cccc2cc3ccccc3cc12,inactive
15,Cc1ccc2cc(C#N)c(N3CCCN(C(=O)C4CCCO4)CC3)nc2c1C (stereo not drawn),inactive
16,NC(=S)N=Nc1c(O)[nH]c2ccccc12,inactive
17,COc1ccc(OC)c(-n2c(-c3cc(-c4ccco4)[nH]n3)n[nH]c2=S)c1,inactive
18,O=C(NNc1ccccc1)C(=O)NNS(=O)(=O)c1ccc(CCCl)cc1,inactive
19,Cc1ccccc1C(=O)N=c1ccn(-c2nc3ccccc3nc2NS(=O)(=O)c2ccccc2)cc1,inactive
20,CC1=NN(C(N)=S)C(=O)C1N=Nc1ccccc1C (stereo not drawn),inactive
21,CC(=O)CCS(=O)(=O)c1ccc(Oc2ccc(S(=O)(=O)CCC(C)=O)cc2)cc1,inactive
22,CC1=Nc2cccc3cccc(c23)N1C,inactive
23,O=[N+]([O-])c1ccc(-c2cn3nc(-c4ccccc4)c(-c4ccccc4)nc3n2)cc1,inactive
24,Nc1ccc(Cc2ccc(N)c(C(=O)O)c2)cc1C(=O)O,inactive
25,N=C(N)N=Nc1c(O)[nH]c2ccc(Br)cc12,inactive
26,COc1cccc(CNC23CC4CC(CC(C4)C2)C3)c1OCc1ccccc1,inactive
27,CCCCn1c(N)c(N(CCOC)C(=O)c2ccc(Br)o2)c(=O)[nH]c1=O,inactive

row,Structure (SMILES),"activity change, negative = inhibition"
1,Cc1ccc(/C=C2/NC(=O)N(Cc3ccccc3)C2=O)s1,inactive
2,Cc1ccc(C(=O)N/N=C\c2cc(Br)c(Br)o2)cn1,inactive
3,O=C(NNC(=O)c1ccccc1[N+](=O)[O-])c1ccco1,inactive
4,CCN(CC)c1ccc(/C=N/NC(=O)c2cccc(S(=O)(=O)Nc3ccccc3OC)c2)c(O)c1,inactive
5,CCOC(=O)c1c(-c2ccc(C)o2)csc1NC(=S)NC(=O)c1cccs1,inactive
6,Cc1ccc(-c2nc(C=Nc3cccc(C)c3)c(O)o2)cc1,inactive
7,CCN1CCN(Cc2c(C(=O)N/N=C(\C)c3ccc(Cl)c(Cl)c3)nnn2-c2nonc2N)CC1,inactive
8,O=C(/C=C(\O)c1ccccc1)C(=O)NNC(=O)c1ccccc1,inactive
9,CC(=O)c1cc(NC(=O)c2ccc([N+](=O)[O-])cc2)c(=O)oc1C,inactive
10,O=C1C(Cl)=C(NC2CCCCC2)C(=O)N1c1ccc(Cl)cc1,inactive
11,O=C(NC1CCSc2ccccc21)c1ccc([N+](=O)[O-])cc1 (stereo not drawn),inactive
12,COC(=O)C1=C(C)OC(N)=C(C#N)C1c1cc(OC)c(OCC(N)=O)cc1Cl (stereo not drawn),inactive
13,COc1cc(/C=N/NC(=S)Nc2cccc(C(=O)O)c2)ccc1O,inactive
14,O=C(O)CSc1ncnc2nc[nH]c12,inactive
15,O=C(O)c1ccc2c(c1)C(=O)/C(=C/c1ccccc1)C2=O,inactive
16,O=C(O)c1[nH]c2ccccc2c1C(c1cc(Br)ccc1O)c1c(C(=O)O)[nH]c2ccccc12,inactive
17,CCOC(=O)C1CCN(c2nc(N)c3c(N)nc(SCC(=O)O)cc3c2C#N)CC1,inactive
18,Cc1c(CN2CCCC(C)C2)c(O)n(CCO)c(=O)c1C#N (stereo not drawn),inactive
19,Cc1cccc(C(=O)NNC(=O)c2csc(N3CCOCC3)n2)c1C,inactive
20,COc1cc2c(cc1O)CC1c3c(cc(O)c(OC)c3-2)CCN1C (stereo not drawn),inactive
21,Nc1ccc2nc(CN3CCOCC3)[nH]c2c1,inactive
22,Cc1cccc(-n2c(N)c(-c3nc4ccccc4n3C)c3nc4ccccc4nc32)c1,inactive
23,COC(=O)c1cccc2nc3c(C(C)O)cccc3nc12 (stereo not drawn),inactive
24,Oc1ccc(C2C=C(c3ccc(F)cc3)Nc3ncnn32)cc1 (stereo not drawn),inactive
25,CC(=O)Nc1ccc(N=NC2C(=O)N(C(N)=S)N=C2C)cc1 (stereo not drawn),inactive
26,C[n+]1c2ccccc2nc2ccc(NCCO)cc21,inactive
27,Cc1cc(C)c2ccc(C(=O)O)nc2c1O,inactive

row,Structure (SMILES),"activity change, negative = inhibition"
1,COc1ccc(CC(=O)NNC(=O)c2cnccn2)cc1,inactive
2,Cc1cccc2c(N=Nc3ccccc3)c(O)[nH]c12,inactive
3,CN1C(=O)NC(c2ccccc2Cl)C2=C1CC(C)(C)CC2=O (stereo not drawn),inactive
4,COC(=O)/C=C1/S/C(=N/NC(=O)c2ccc(Cl)cc2Cl)NC1=O,inactive
5,CCCCN(C(=O)c1ccc([N+](=O)[O-])o1)c1c(N)n(CCCC)c(=O)[nH]c1=O,inactive
6,CCOC(=O)NC(=O)/C(C#N)=C\Nc1sccc1C(=O)OC,inactive
7,COc1ccc(C(=O)NNC(=O)C(=O)/C=C(\O)c2ccc(C)cc2)cc1,inactive
8,O=C(Nc1nccs1)c1ccc(-c2ccc(Cl)cc2)o1,inactive
9,O=C(NC1CCSc2ccccc21)c1ccccc1Br (stereo not drawn),inactive
10,CCc1ccc(S(=O)(=O)Nc2ccc(O)c3c(=O)cc(-c4ccccc4Cl)oc23)cc1,inactive
11,CCCCC1=CC2=C(c3ccco3)C(=O)C(C)(OC(=O)c3ccc(OC)cc3)C(=O)C2=CN1C(CO)CO (stereo not drawn),inactive
12,CC(C)OC(=O)c1c2c(n3ccccc13)C(=O)c1ccccc1C2=O,inactive
13,COc1ccc(CC(=O)NNc2ncnc3c2cnn3C)cc1OC,inactive
14,Nc1ccc2oc(-c3ccccc3Cl)cc(=O)c2c1O,inactive
15,O=C(Nc1ccc(S(=O)(=O)Nc2nccs2)cc1)c1ccc(N2C(=O)c3ccccc3C2=O)cc1,inactive
16,COc1ccc(NS(=O)(=O)c2cccc(C(=O)NNC(=O)c3cc(S(N)(=O)=O)ccc3OC)c2)cc1,inactive
17,CCOc1ccc(/C=C/C(=O)c2ccccc2)cc1,inactive
18,C=CCOc1ccc(C(c2c(C(=O)O)[nH]c3ccccc23)c2c(C(=O)O)[nH]c3ccccc23)cc1,inactive
19,N=c1c(C(=O)NC2CCCC2)cc2c(=O)n3ccccc3nc2n1C1CCCC1,inactive
20,O=C(O)CCN1C(=O)/C(=C\c2ccc(OCc3ccccc3)c(OCc3ccccc3)c2)SC1=S,inactive
21,CC1CN2C(c3ccc(Cl)cc3)=CSC2=N1 (stereo not drawn),inactive
22,Cc1ccc(NC(=O)CCC(=O)NNC(=S)Nc2ccccc2)c(C)c1,inactive
23,CN(C)c1ccc(C(c2nnnn2CCOC(=O)Nc2ccc(Cl)cc2)N2CCOCC2)cc1 (stereo not drawn),inactive
24,Cc1ccc2c(c1Cl)NC(C(=O)O)C1CC(Sc3ccccc3[N+](=O)[O-])C(Cl)C21 (stereo not drawn),inactive
25,CN1CCCc2cc(C=O)ccc21,inactive
26,O=C(CCc1ccccc1)N/N=C\c1cc2c(cc1Br)OCO2,inactive

# Source: PubChem BioAssay AID493130 (Broad Institute, 2011)
